This note sets out measurements from paper PMC9037111, “Structure-based design, synthesis, and biological evaluation of novel piperine–resveratrol hybrids as antiproliferative agents targeting SIRT-2” (RSC Advances, 2021).

What all share (assay): cells
What all share (parameters): species or system NCI-60 human tumour cell lines; NCI-60 one-dose screen at 10 uM, percent growth inhibition versus untreated control cells

For test [1], the system named is CAKI-1. The note with it: Homo sapiens, CAKI-1, growth inhibition, one dose.
Test [2] concerns K-562. As to conditions: Homo sapiens, K562, growth inhibition, one dose.
Test [3] concerns M14. As to conditions: Homo sapiens, M14, growth inhibition, one dose.
Test [4] has as its system MCF7. As to conditions: Homo sapiens, MCF7, growth inhibition, one dose.
In test [5] the test system is MDA-MB-435. As to conditions: Homo sapiens, MDA-MB-435, growth inhibition, one dose.
Test [6] relates to NCI-H522. As to conditions: Homo sapiens, NCI-H522, growth inhibition, one dose.
Test [7] relates to SNB-75. The note with it: Homo sapiens, SNB-75, growth inhibition, one dose.
Test [8] has as its system UO-31. As to conditions: Homo sapiens, UO-31, growth inhibition, one dose.
Test [9] concerns NCI-H322M. The note with it: Homo sapiens, NCI-H322M, growth inhibition, one dose.
In test [10] the test system is SF-539. As to conditions: Homo sapiens, SF-539, growth inhibition, one dose.
Test [11] relates to SW-620. As to conditions: Homo sapiens, SW-620, growth inhibition, one dose.
In test [12] the test system is T-47D. The note with it: Homo sapiens, T47D, growth inhibition, one dose.
The subject of test [13] is EKVX. The note with it: Homo sapiens, EKVX, growth inhibition, one dose.
For test [14], the system named is HCC-2998. The note with it: Homo sapiens, HCC 2998, growth inhibition, one dose.
The subject of test [15] is HCT-116. As to conditions: Homo sapiens, HCT-116, growth inhibition, one dose.
The subject of test [16] is OVCAR-5. The note with it: Homo sapiens, OVCAR-5, growth inhibition, one dose.
Test [17] concerns SK-MEL-2. The note with it: Homo sapiens, SK-MEL-2, growth inhibition, one dose.
Test [18] concerns SNB-19. As to conditions: Homo sapiens, SNB-19, growth inhibition, one dose.
Setting [19] is: read-out: Growth% inhibition / 5d.
The mark [20] stands for this setting: read-out: Growth% inhibition / 5a.
Setting [21] is: read-out: Growth% inhibition / 5b.
Setting [22] is: read-out: Growth% inhibition / 5e.

Like-named read-outs stand apart in the source and are kept apart here.

For the compound `CN(C)c1ccc(C=NNC(=O)/C=C/C=C/c2ccc3c(c2)OCO3)cc1` (mixture of isomers) [5d, (2E,4E)-5-(Benzo[d][1,3]dioxol-5-yl)-N′-((E/Z)-4-(dimethylamino)-benzylidene)penta-2,4-dienehydrazide], the inhibition at 10 µM in test [1] (setting [19]) amounted to 24.6%; in test [2] (setting [19]) it was 56.1%; in test [3] (setting [19]), 22.2%; in test [4] (setting [19]), 43.6%; in test [5] (setting [19]), 70.1%; in [6] (setting [19]), 11.7%. Besides, the results for the inhibition at 10 µM in [7] (setting [19]) and in test [8] (setting [19]) were 25.7% and 23.7%, respectively.

Turning to `O=C(/C=C/C=C/c1ccc2c(c1)OCO2)NN=Cc1ccc(O)cc1` [5a, (2E,4E)-5-(Benzo[d][1,3]dioxol-5-yl)-N′-((E,Z)-4-hydroxybenzylidene)penta-2,4-dienehydrazide], the inhibition at 10 µM in test [1] (setting [20]) turned out to be 25.1%; in test [2] (setting [20]), 58.8%; in [3] (setting [20]), 17.1%; in [4] (setting [20]) it was 28.8%; in test [5] (setting [20]) it was 73%; in [9] (setting [20]) it was 18.5%. For the same compound, the inhibition at 10 µM came to 22.8% in [6] (setting [20]); 17.6% in [10] (setting [20]); 27% in [7] (setting [20]); 19.8% in test [11] (setting [20]); 18.6% in test [12] (setting [20]); 39.2% in test [8] (setting [20]).

Regarding `O=C(/C=C/C=C/c1ccc2c(c1)OCO2)N/N=C/c1ccc(O)cc1O` [5b, (2E,4E)-5-(Benzo[d][1,3]dioxol-5-yl)-N′-((E)-2,4-dihydroxybenzylidene)penta-2,4-dienehydrazide], the inhibition at 10 µM came to 90.3% in test [1] (setting [21]); 79.8% in [13] (setting [21]); 61.1% in test [14] (setting [21]); 91.3% in test [15] (setting [21]); 88.4% in test [2] (setting [21]); 69.7% in test [3] (setting [21]). The inhibition at 10 µM worked out at 85.9% in test [4] (setting [21]); 67.4% in test [5] (setting [21]); 82.2% in test [9] (setting [21]); 78.9% in test [6] (setting [21]); 57.5% in test [16] (setting [21]); 85.7% in [10] (setting [21]). Moreover, the inhibition at 10 µM in [17] (setting [21]) was determined as 47.2%; in [18] (setting [21]), 50.9%; in [7] (setting [21]), 36%; in test [11] (setting [21]), 73.5%; in test [12] (setting [21]), 76.1%; in test [8] (setting [21]), 88.6%.

As for `CCN(CC)c1ccc(/C=N/NC(=O)/C=C/C=C/c2ccc3c(c2)OCO3)c(O)c1` [5e, (2E,4E)-5-(Benzo[d][1,3]dioxol-5-yl)-N′-((E)-4-(diethylamino)-2-hydroxybenzylidene)penta-2,4-dienehydrazide], the inhibition at 10 µM in test [1] (setting [22]) turned out to be 70.7%; in test [13] (setting [22]), 47.8%; in test [14] (setting [22]), 46%; in [15] (setting [22]) it was 92.1%; in [2] (setting [22]), 82.4%; in test [3] (setting [22]), 63.6%. Further, the inhibition at 10 µM in test [4] (setting [22]) worked out at 80.5%; in [5] (setting [22]) it was 51.1%; in [9] (setting [22]) it was 66.8%; in test [6] (setting [22]), 87.5%; in test [16] (setting [22]), 39.1%; in test [10] (setting [22]), 77.3%. Moreover, the inhibition at 10 µM in [17] (setting [22]) was found to be 34.3%; in test [18] (setting [22]), 39%; in [7] (setting [22]), 41.2%; in [11] (setting [22]), 67.7%; in test [12] (setting [22]), 73.7%; in [8] (setting [22]) it was 75%.
